The values that follow come from patent US20100093613A1, “METHODS FOR IDENTIFYING AGENTS AND THEIR USE FOR THE PREVENTION OR STABILIZATION OF FIBROSIS” (priority 2007, published 2010).

What all share (type): cell-based, human
The subject of assay [1] is Fibroblasts. Description: BioMAP HDFT system (TGF-β), scoring of readout parameters. Also on record: key to PAI-1 score: 1 = modulated in desired direction, 0 = not (no penalties applied). The settings on record: for PAI-1 score: HDFT, desired change decrease; for inhibit PAI-1 in the HDFT system: indication of TGF-b signaling inhibition without being cytotoxic. An excerpt:
(§1) Each screened compound is scored according to its modulation of the selected readout parameters. Compounds receive a positive score (score of 1) or negative score (score of 0) for each readout parameter set forth in Table 2 that is modulated in the desired direction. […] Parameters may be penalized by making the positive score a −1 for parameters where regulation is opposite to the desired direction.
Compounds were first selected to inhibit PAI-1 in the HDFT as an indication of TBF-b signaling inhibition without being cytotoxic. […] Blank spots in Table 3 were where parameter was not assayed. Penalties were not applied for this scoring.
(§2) Cell culture. Human umbilical vein endothelial cells (HUVEC) were pooled from multiple donors, cultured according to standard methods, and plated into microtiter plates at passage 4. Cell culture medium for all systems containing HUVEC included hydrocortisone. Coronary artery smooth muscle cells (CASM3C) and umbilical artery smooth muscle cells (HSM3C) were cultured according to standard procedures. Peripheral blood mononuclear cells (PBMC) were prepared from buffy coats from normal human donors according to standard methods. Monocyte-derived macrophages were differentiated in the presence of M-CSF for 7 d according to standard procedures. Human dermal fibroblasts were pooled from 3 donors, cultured according to standard methods, and plated confluent 24 h before stimulation. Cell culture medium for all systems containing fibroblasts and keratinocytes contained low hydrocortisone. Epidermal keratinocytes and bronchial epithelial cells from 3 donors were cultured according to standard procedures and pooled when plated into microtiter plates. For keratinocyte-fibroblast co-cultures, cells were plated simultaneously 24 h before stimulation. For bronchial epithelial cell-fibroblast co-cultures, fibroblasts were plated and cultured 48 before addition of epithelial cells, then cultured another 24 hr before stimulation. Concentrations/amounts of agents added to confluent microtiter plates to build each system: cytokines (IL-1β, 1 ng/ml; TNF-α, 5 ng/ml; IFN-γ, 20 ng/ml; IL-4, 5 ng/ml), activators (SAg, 20 ng/ml; histamine, 10 μM; zymosan, 10 μg/ml; or LPS, 2 ng/ml), growth factors (TGF-β, 5 ng/ml; EGF, bFGF, and PDGF-BB, 10 ng/ml), and PBMC (7.5×10^4 cells/well) or macrophages (3.5×10^4 cells/well).
(§3) Compounds. Compounds were prepared in the solvent directed, added 1 hr before stimulation of the cells, and were present during the 24 hr stimulation period for the measurement of parameters listed in Table 2. For proliferation, compounds added 1 hr before stimulation of the cells with cytokines, and were present during the 48 to 72 hr assay. If prepared in DMSO, the final concentration of solvent was 0.1% or less.
(§4) Readout Parameter Measurements. The levels of readout parameters were measured by ELISA. Briefly, microtiter plates are treated, blocked, and then incubated with primary antibodies or isotype control antibodies (0.01-0.5 microg/ml) for 1 hr. After washing, plates were incubated with a peroxidase-conjugated anti-mouse IgG secondary antibody or a biotin-conjugated anti-mouse IgG antibody for 1 hr followed by streptavidin-HRP for 30 min. Plates were washed and developed with TMB substrate and the absorbance (OD) was read at 450 nm (subtracting the background absorbance at 650 nm). Quantitation of TNF-alpha or PGE2 in the LPS system was done using a commercially available kit according to the manufacturer's directions. Proliferation of endothelial cells (HUVEC and CAEC), smooth muscle cells (SMC and CASMC), and PBMC (T cells) was quantitated by Alamar Blue reduction or SRB.
Data analysis. Mean OD values for each parameter were calculated for compounds run in duplicate. The mean value (or single well OD value) for each parameter in a treated sample was then divided by the mean value from an appropriate control to generate a ratio.

The subject of assay [2] is Fibroblasts. Description: BioMAP HDF3CGF system (IL-1β + TNF-α + IFN-γ + EGF + bFGF + PDGFbb), scoring of readout parameters. The settings on record: for PAI-1 score: desired change decrease; for MMP-1 score: desired change increase; for EGFR score: desired no change or increase.
Description: In the “HDF-3CGF” system, dermal fibroblast cells, usually primary human dermal fibroblast cells are cultured alone or in the presence of lung epithelial cells, usually primary human lung epithelial cells, with two or more factors selected from: TNF, IL-1, IFNγ, EGF, bFGF+HSPG (heparan sulfate proteoglycan), and PDGFbb. In some embodiments three or more factors are present, four or more, five or more, or all six factors are present.
Human neonatal dermal fibroblasts (HDFn) or adult lung fibroblasts (HDFp) or fibroblasts from tissues such as liver, heart, or kidney are used. Cells are cultured at 3×10^4 cells/ml in DMEM/F12 (50/50) from Cellgro, supplemented with LSGS kit (from Cascade Biologics); fetal bovine serum, 2% v/v, hydrocortisone 100 nM, human epidermal growth factor 10 ng/ml, basic fibroblast growth factor 3 ng/ml and heparin 10 μg/ml, and penicillin/streptomycin amphotericin B solution (PSA), until confluency. Medium is replaced with DMEM/F12 with only penicillin/streptomycin amphotericin B solution (PSA), then 24 hours later, the following are applied:
After another 24, 48 or 72 hours incubation (37° C., 5% CO2) the cultures are evaluated for the following parameters: ICAM, VCAM, CD40, CD90, IP-10, MCP-1, Collagen I, Mig, m-CSF, TIMP-2, PAI-I, IL-8, Collagen III, HLA-DR, MMP-1, MMP-9, proliferation, TGF-b1, eotaxin-3, decorin, alpha-SMC, MLCK, I-TAC, EGFR, TIMP-1.
Cell culture. […] Human dermal fibroblasts were pooled from 3 donors, cultured according to standard methods, and plated confluent 24 h before stimulation. Cell culture medium for all systems containing fibroblasts and keratinocytes contained low hydrocortisone. […] Concentrations/amounts of agents added to confluent microtiter plates to build each system: cytokines (IL-1β, 1 ng/ml; TNF-α, 5 ng/ml; IFN-γ, 20 ng/ml; IL-4, 5 ng/ml), activators (SAg, 20 ng/ml; histamine, 10 μM; zymosan, 10 μg/ml; or LPS, 2 ng/ml), growth factors (TGF-β, 5 ng/ml; EGF, bFGF, and PDGF-BB, 10 ng/ml), and PBMC (7.5×10^4 cells/well) or macrophages (3.5×10^4 cells/well).
Assay [3] has as its system Umbilical Vein Endothelial Cells. Description: BioMAP 3C system (IL-1β + TNF-α + IFN-γ), scoring of readout parameters. To be noted: for HLA-DR score: desired change decrease; for uPAR score: desired change increase.
Excerpt: as §1, §2, §3, §4
Data analysis. Mean OD values for each parameter were calculated for compounds run in duplicate. The mean value (or single well OD value) for each parameter in a treated sample was then divided by the mean value from an appropriate control to generate a ratio. All ratios were then log10 transformed. 95% significance prediction envelopes (grey shading in Figures) were calculated for historical controls.

As for `Cn1cnc([N+](=O)[O-])c1Sc1ncnc2nc[nH]c12` [Azathioprine], in the assay on Fibroblasts [1], the PAI-1 score was 0 and the “inhibit PAI-1 in the HDFT system” value is given as “none of these inhibit PAI-1”. In the assay with Fibroblasts [2], the PAI-1 score is recorded as 0, the MMP-1 score came to 0 and the EGFR score is reported as 0. Moreover, in assay [3], the HLA-DR score is 0 and the uPAR score was determined as 0.

`CCc1oc2ccccc2c1C(=O)c1cc(Br)c(O)c(Br)c1` [Benzbromarone]: in the assay on Fibroblasts [1], the PAI-1 score is on record as 1. Further, in the assay with Fibroblasts [2], the PAI-1 score is 1, the MMP-1 score amounted to 0 and the EGFR score is recorded as 0. Besides, in assay [3], the HLA-DR score amounted to 0 and the uPAR score was 0.

Molecule `C=C1CC[C@H](O)C/C1=C/C=C1\CCC[C@]2(C)[C@@H]([C@H](C)/C=C/[C@H](C)C(C)C)CC[C@@H]12` [Calciferol] registered a PAI-1 score in the assay on Fibroblasts [1] of 1. Moreover, in the assay with Fibroblasts [2], the PAI-1 score stood at 1, the MMP-1 score came to 0 and the EGFR score is reported as 0. Also, in assay [3], the HLA-DR score is on record as 0 and the uPAR score is given as 1.

For `COc1cc2c(c(OC)c1OC)-c1ccc(OC)c(=O)cc1[C@@H](NC(C)=O)CC2` [Colchicine], in the assay on Fibroblasts [1], the PAI-1 score turned out to be 0 and the “inhibit PAI-1 in the HDFT system” value was “none of these inhibit PAI-1”. Also, in the assay on Fibroblasts [2], the PAI-1 score was found to be 0, the MMP-1 score is on record as 0 and the EGFR score worked out at 0. Further, in assay [3], the HLA-DR score is 0 and the uPAR score came to 0.

Molecule `O=C(O)c1ccccc1Nc1cccc(C(F)(F)F)c1` [Flufenamic Acid] had a PAI-1 score with Fibroblasts [1] of 1. In the assay on Fibroblasts [2], the PAI-1 score is 0, the MMP-1 score turned out to be 0 and the EGFR score turned out to be 0. In assay [3], the HLA-DR score is listed as 0 and the uPAR score is 0.

With `Fc1ccc(C(OCCN2CCN(CCCc3ccccc3)CC2)c2ccc(F)cc2)cc1` [GBR 12909], the PAI-1 score with Fibroblasts [1] came out at 1. For the same molecule, in the assay with Fibroblasts [2], the PAI-1 score came to 1, the MMP-1 score came out at 0 and the EGFR score worked out at 0. Besides, in assay [3], the HLA-DR score came out at 0 and the uPAR score came out at 0.

Take `CCCCN(CCCC)CCC(O)c1cc2c(Cl)cc(Cl)cc2c2cc(C(F)(F)F)ccc12` (stereo not drawn) [Halofantrine]: the PAI-1 score in the assay with Fibroblasts [1] worked out at 1. Besides, in the assay on Fibroblasts [2], the PAI-1 score turned out to be 1, the MMP-1 score worked out at 0 and the EGFR score is 0. Also, in assay [3], the HLA-DR score is reported as 0 and the uPAR score was found to be 0.

Consider `CCN(CC)CCNc1ccc(CO)c2sc3ccccc3c(=O)c12` [Hycanthone], for which the PAI-1 score in the assay with Fibroblasts [1] was 1. Moreover, in the assay with Fibroblasts [2], the PAI-1 score is 1, the MMP-1 score stood at 0 and the EGFR score turned out to be 0. For the same molecule, in assay [3], the HLA-DR score turned out to be 0 and the uPAR score stood at 0.

In the assay with Fibroblasts [1], `O=c1cc(-c2ccc(O)c(O)c2)oc2cc(O)cc(O)c12` [Luteolin] had a PAI-1 score of 1. For the same molecule, in the assay with Fibroblasts [2], the PAI-1 score was determined as 1, the MMP-1 score is recorded as 0 and the EGFR score came out at 0. Besides, in assay [3], the HLA-DR score was determined as 0 and the uPAR score came to 0.

Turning to `COC(=O)Nc1nc2ccc(SC(C)C)cc2[nH]1` [Methiazole], in the assay on Fibroblasts [1], the PAI-1 score is given as 1. In addition, in the assay on Fibroblasts [2], the PAI-1 score was 1, the MMP-1 score was 0 and the EGFR score stood at 0. In assay [3], the HLA-DR score was 0 and the uPAR score came to 0.

Turning to `C[C@]12C=CC(=O)C=C1CC[C@@H]1[C@@H]2[C@@H](O)C[C@@]2(C)[C@H]1CC[C@]2(O)C(=O)CO` [Prednisolone], in the assay on Fibroblasts [1], the PAI-1 score was 0 and the “inhibit PAI-1 in the HDFT system” value was “none of these inhibit PAI-1”. In addition, in the assay with Fibroblasts [2], the PAI-1 score was 0, the MMP-1 score amounted to 0 and the EGFR score was found to be 0. Further, in assay [3], the HLA-DR score was determined as 1 and the uPAR score was 0.

`Cc1c(Cl)cccc1Nc1ccccc1C(=O)O` [Tolfenamic Acid] yielded a PAI-1 score with Fibroblasts [1] of 1. In addition, in the assay with Fibroblasts [2], the PAI-1 score worked out at 0, the MMP-1 score was 0 and the EGFR score is on record as 0. Moreover, in assay [3], the HLA-DR score stood at 0 and the uPAR score is recorded as 0.

In the assay with Fibroblasts [1], `COc1cc(-c2ccc(=O)[nH]n2)ccc1OC(F)F` [Zardaverine] gave a PAI-1 score of 1. Moreover, in the assay on Fibroblasts [2], the PAI-1 score is 1, the MMP-1 score was 0 and the EGFR score is 0. In assay [3], the HLA-DR score is 0 and the uPAR score was 0.

(R)-(−)-Apomorphine: the PAI-1 score in the assay with Fibroblasts [1] was 1. In the assay on Fibroblasts [2], the PAI-1 score was 1, the MMP-1 score turned out to be 0 and the EGFR score is 0. In addition, in assay [3], the HLA-DR score amounted to 0 and the uPAR score came out at 0.

Antimycin A: the PAI-1 score with Fibroblasts [1] is 1. In addition, in the assay with Fibroblasts [2], the PAI-1 score is on record as 1, the MMP-1 score is 0 and the EGFR score was determined as 0. Also, in assay [3], the HLA-DR score amounted to 0 and the uPAR score was 0.
